Where “and” joins values, the source holds several entries; their conditions need not be identical. Identical values can stand only once. Inconclusive results and toxic doses are left out. The calls were made as follows: active = survival T/C of 150% or more; inactive = T/C below 125% in these data.
Test system: P388 leukemia ip, CD2F1 mice, survival T/C
Assay: NCI In Vivo Anticancer Drug Screen. Data for tumor model P388 Leukemia (intraperitoneal) in CD2F1 (CDF1) mice
Conditions: endpoint: median survival time, higher = longer survival
Outline: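 Mice carrying the transplanted tumor received test compound or vehicle. Survival was recorded in each group, and the value is the treated-group measurement divided by that of the vehicle-treated control group.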

[1] = dose: 50.0 mg/kg/injection, schedule: Q01DX009 (ip), vehicle: saline with Tween-80
[2] = dose: 100.0 mg/kg/injection, schedule: Q01DX009 (ip), vehicle: saline with Tween-80
[3] = dose: 200.0 mg/kg/injection, schedule: Q01DX009 (ip), vehicle: saline with Tween-80
[4] = dose: 50.0 mg/kg/injection, schedule: Q01DX005 (ip), vehicle: saline with Tween-80
[5] = dose: 100.0 mg/kg/injection, schedule: Q01DX005 (ip), vehicle: saline with Tween-80
[6] = dose: 60.0 mg/kg/injection, schedule: Q01DX005 (ip), vehicle: saline with Tween-80
[7] = dose: 120.0 mg/kg/injection, schedule: Q01DX005 (ip), vehicle: saline with Tween-80
[8] = dose: 240.0 mg/kg/injection, schedule: Q01DX005 (ip), vehicle: saline with Tween-80
[9] = dose: 50.0 mg/kg/injection, schedule: Q01DX009 (ip), vehicle: Klucel (hydroxypropylcellulose) (HPC)
[10] = dose: 100.0 mg/kg/injection, schedule: Q01DX009 (ip), vehicle: Klucel (hydroxypropylcellulose) (HPC)
[11] = dose: 200.0 mg/kg/injection, schedule: Q01DX009 (ip), vehicle: Klucel (hydroxypropylcellulose) (HPC)
[12] = dose: 50.0 mg/kg/injection, schedule: Q01DX005 (ip), vehicle: Klucel (hydroxypropylcellulose) (HPC)
[13] = dose: 100.0 mg/kg/injection, schedule: Q01DX005 (ip), vehicle: Klucel (hydroxypropylcellulose) (HPC)
[14] = dose: 200.0 mg/kg/injection, schedule: Q01DX005 (ip), vehicle: Klucel (hydroxypropylcellulose) (HPC)
[15] = dose: 50.0 mg/kg/injection, schedule: Q01DX009 (ip), vehicle: saline
[16] = dose: 12.5 mg/kg/injection, schedule: Q01DX009 (ip), vehicle: other
[17] = dose: 25.0 mg/kg/injection, schedule: Q01DX009 (ip), vehicle: other

Measured: T/C

CCOC(=O)C(C)(OCC)OCC
inactive: dose: 25.0 mg/kg/injection, schedule: Q01DX009 (ip), vehicle: saline with Tween-80 101 % of control | [1] 98 % of control | [2] 98 % of control | [3] 98 % of control | dose: 400.0 mg/kg/injection, schedule: Q01DX009 (ip), vehicle: saline with Tween-80 100 % of control

Nc1ncnc2nc(N=Nc3c(O)ccc4ccccc34)[nH]c12
inactive: [4] 104 % of control | [5] 93 % of control

CCCCP(=O)(CCCC)CCCC.CCCCP(=O)(CCCC)CCCC.CCCCP(=O)(CCCC)CCCC.CCCCP(=O)(CCCC)CCCC.[Ce+3].[O-][Cl+3]([O-])([O-])O
inactive: [1] 97 % of control | [2] 92 % of control | [3] 86 % of control

COC(=O)CCC(=O)Nc1ccccc1C(F)(F)F
inactive: [6] 102 % of control | [7] 108 % of control | [8] 107 % of control

CCCCCCC(=O)/C=C/c1cccc(OCOC)c1
inactive: [1] 87 % of control | [2] 113 % of control | [3] 103 % of control

Cc1ccccc1Nc1ccc([N+](=O)[O-])c2nonc12
inactive: [4] 103 % of control | [5] 98 % of control | dose: 200.0 mg/kg/injection, schedule: Q01DX005 (ip), vehicle: saline with Tween-80 92 % of control

[Cl][Hg][CH]1CCCC2OC(C(Cl)(Cl)Cl)OC21 (stereo not drawn)
inactive: dose: 3.13 mg/kg/injection, schedule: Q01DX001 (ip), vehicle: saline with Tween-80 113 % of control | dose: 6.25 mg/kg/injection, schedule: Q01DX001 (ip), vehicle: saline with Tween-80 97 % of control | dose: 12.5 mg/kg/injection, schedule: Q01DX001 (ip), vehicle: saline with Tween-80 94 % of control

O=C(O)CSC(=S)Nc1ccccn1
inactive: [1] 94 % of control | [2] 90 % of control | [3] 100 % of control

Cc1cc(N/N=C/c2cccnc2)c2ccccc2n1
inactive: [9] 94 % of control | [10] 100 % of control | [11] 98 % of control

Cc1ccc(S(=O)(=O)NC2CC3(C)CCC2C3(C)C)cc1 (stereo not drawn)
inactive: [12] 94 % of control | [13] 97 % of control | [14] 87 % of control

Nc1c(S)cc(O)c2c1C(=O)c1ccccc1C2=O
inactive: [12] 99 % of control | [13] 103 % of control | [14] 107 % of control

CCCCN(CC)CCCCCCCCCCN1CCCc2cc(OC)ccc21
inactive: dose: 12.5 mg/kg/injection, schedule: Q01DX005 (ip), vehicle: saline with Tween-80 101 % of control | dose: 25.0 mg/kg/injection, schedule: Q01DX005 (ip), vehicle: saline with Tween-80 111 % of control | [4] 115 % of control | [5] 107 % of control

O=S(=O)(O)c1ccc(N=Nc2c(S(=O)(=O)O)cc3cc(S(=O)(=O)O)cc(O)c3c2O)cc1
inactive: [15] 93 % of control | dose: 100.0 mg/kg/injection, schedule: Q01DX009 (ip), vehicle: saline 99 % of control | dose: 200.0 mg/kg/injection, schedule: Q01DX009 (ip), vehicle: saline 106 % of control

Nc1ncnc2c1ncn2C1OC(CO)CC1O (stereo not drawn)
inactive: dose: 9.37 mg/kg/injection, schedule: Q01DX009 (ip), vehicle: Klucel (hydroxypropylcellulose) (HPC) 109 % of control | dose: 18.75 mg/kg/injection, schedule: Q01DX009 (ip), vehicle: Klucel (hydroxypropylcellulose) (HPC) 104 % of control | dose: 37.5 mg/kg/injection, schedule: Q01DX009 (ip), vehicle: Klucel (hydroxypropylcellulose) (HPC) 110 % of control | dose: 75.0 mg/kg/injection, schedule: Q01DX009 (ip), vehicle: Klucel (hydroxypropylcellulose) (HPC) 112 % of control

CC(Nc1ncccn1)Nc1ncccn1
inactive: dose: 60.0 mg/kg/injection, schedule: Q01DX005 (ip), vehicle: Klucel (hydroxypropylcellulose) (HPC) 107 % of control | dose: 120.0 mg/kg/injection, schedule: Q01DX005 (ip), vehicle: Klucel (hydroxypropylcellulose) (HPC) 102 % of control | dose: 240.0 mg/kg/injection, schedule: Q01DX005 (ip), vehicle: Klucel (hydroxypropylcellulose) (HPC) 111 % of control

O=C1CCCC2=C1[Se]C1(O2)C(=O)CCCC1=O
inactive: dose: 12.5 mg/kg/injection, schedule: Q01DX009 (ip), vehicle: saline 102 % of control | dose: 25.0 mg/kg/injection, schedule: Q01DX009 (ip), vehicle: saline 101 % of control | [15] 104 % of control and 107 % of control

CC1Nc2ccccc2NC1C (stereo not drawn)
inactive: dose: 6.25 mg/kg/injection, schedule: Q01DX009 (ip), vehicle: saline + Tween-80 + alcohol 98 % of control | dose: 12.5 mg/kg/injection, schedule: Q01DX009 (ip), vehicle: saline + Tween-80 + alcohol 96 % of control | dose: 25.0 mg/kg/injection, schedule: Q01DX009 (ip), vehicle: saline + Tween-80 + alcohol 99 % of control and 95 % of control | dose: 50.0 mg/kg/injection, schedule: Q01DX009 (ip), vehicle: saline + Tween-80 + alcohol 91 % of control | dose: 100.0 mg/kg/injection, schedule: Q01DX009 (ip), vehicle: saline + Tween-80 + alcohol 100 % of control

CCC(=O)NN1C(=O)c2ccccc2C1=O
inactive: [6] 103 % of control | [7] 104 % of control | [8] 99 % of control

CCCCCCCCCCCCSC1=CC(=O)C(OC)=C(OC)C1=O
inactive: dose: 0.78 mg/kg/injection, schedule: Q01DX009 (ip), vehicle: other 101 % of control | dose: 1.56 mg/kg/injection, schedule: Q01DX009 (ip), vehicle: other 108 % of control | dose: 3.13 mg/kg/injection, schedule: Q01DX009 (ip), vehicle: other 102 % of control | dose: 6.25 mg/kg/injection, schedule: Q01DX009 (ip), vehicle: other 108 % of control | dose: 6.25 mg/kg/injection, schedule: Q01DX030 (ip), vehicle: saline with Tween-80 101 % of control | dose: 10.0 mg/kg/injection, schedule: Q01DX030 (ip), vehicle: saline with Tween-80 108 % of control | [16] 110 % of control | dose: 12.5 mg/kg/injection, schedule: Q01DX030 (ip), vehicle: saline with Tween-80 104 % of control and 108 % of control and 121 % of control | [17] 118 % of control | dose: 25.0 mg/kg/injection, schedule: Q01DX030 (ip), vehicle: saline with Tween-80 105 % of control

CN(C)CCCC#N
inactive: dose: 25.0 mg/kg/injection, schedule: Q04DX003 (ip), vehicle: saline 100 % of control | dose: 50.0 mg/kg/injection, schedule: Q04DX003 (ip), vehicle: saline 100 % of control | dose: 100.0 mg/kg/injection, schedule: Q04DX003 (ip), vehicle: saline 100 % of control

Cc1ccc(N=Cc2ccc(C=Nc3ccc(C)c(Cl)c3)cc2)cc1Cl
inactive: [9] 92 % of control | [10] 91 % of control | [11] 100 % of control

CCOC(=O)Nc1cc(Cl)c2[nH]c(=O)[nH]c2n1
inactive: [16] 103 % of control | [17] 106 % of control | dose: 50.0 mg/kg/injection, schedule: Q01DX009 (ip), vehicle: other 100 % of control | dose: 100.0 mg/kg/injection, schedule: Q01DX009 (ip), vehicle: other 104 % of control | dose: 200.0 mg/kg/injection, schedule: Q01DX009 (ip), vehicle: other 100 % of control

COc1ccc(Sc2c(C(=O)O)cccc2C(=O)O)cc1
inactive: dose: 100.0 mg/kg/injection, schedule: Q04DX002 (ip), vehicle: saline with Tween-80 102 % of control | dose: 200.0 mg/kg/injection, schedule: Q04DX002 (ip), vehicle: saline with Tween-80 100 % of control | dose: 400.0 mg/kg/injection, schedule: Q04DX002 (ip), vehicle: saline with Tween-80 101 % of control

COc1ccccc1/C=N\NC(=O)C(=O)N/N=C\c1ccccc1OC
inactive: [9] 86 % of control | [10] 90 % of control | [11] 98 % of control

CC(=O)Nc1cc([N+]#N)ccc1S(=O)(=O)O
inactive: [1] 109 % of control | [2] 93 % of control | [3] 89 % of control

O=C(O)C(Cc1ccccc1)NSc1ccccc1[N+](=O)[O-] (stereo not drawn)
inactive: dose: 25.0 mg/kg/injection, schedule: Q01DX009 (ip), vehicle: distilled water + Tween-80 98 % of control and 100 % of control | dose: 50.0 mg/kg/injection, schedule: Q01DX009 (ip), vehicle: distilled water + Tween-80 107 % of control | dose: 100.0 mg/kg/injection, schedule: Q01DX009 (ip), vehicle: distilled water + Tween-80 100 % of control and 116 % of control | dose: 200.0 mg/kg/injection, schedule: Q01DX009 (ip), vehicle: distilled water + Tween-80 109 % of control

From PubChem BioAssay AID330 (DTP/NCI, 2004)
